Assay results: patent US20250346606A1, “CAMPTOTHECIN COMPOUND, PREPARATION METHOD THEREFOR, AND APPLICATION THEREOF” (SICHUAN KELUN-BIOTECH BIOPHARMACEUTICAL CO., LTD., priority 2021, published 2025)
Like-named read-outs stand apart in the source and are kept apart here.

What was measured:
Assay type in all cases: cell-based, Human
[1] = test system: HT29 cells; assay: Inhibitory effect of compounds on HT29 cell proliferation; conditions: read-out: IC50, inhibitory activity on HT29 cell proliferation
Protocol: (1) Cell plating: First, tumor cells HT29 were cultured in corresponding medium, then digested with trypsin, centrifuged, resuspended, and counted, and the cells were adjusted to an appropriate concentration for plating.
(§1) Co-incubation of the compound of the present disclosure and tumor cells: after the cells adhered to the wall, the medium was removed, and the diluted bioactive molecule (the compound of the present disclosure) was added to the wells of the above plate, and incubated for 72 h.
(§2) In vitro cell viability detection: After the incubation, 50 μL of Cell Counting-Lite™ 2.0 reagent (Vazyme/Novazyme) was added to each well, shaken and mixed well in the dark, reacted for 10 minutes, and then the detection was carried out with a microplate reader (manufacturer: BMG, Model: PHERAStar-FS) for reading. The background RLU was obtained by using cell-free medium (with Cell Counting-Lite™), and the vehicle RLU was obtained by using cell-containing medium (with Cell Counting-Lite™). Cell inhibition rate=1−(sample RLU−background RLU)/(solvent RLU−background RLU)×100%. According to the four-parameter model fitting curve, the half maximal inhibitory concentration (IC50) of the compound was calculated, and the detection results were shown in Table 2.

[2] = test system: MDA-MB-231 cells; assay: Inhibitory effect of compounds on MDA-MB-231 cell proliferation; conditions: read-out: IC50, inhibitory activity on MDA-MB-231 cell proliferation
Protocol: (1) Cell plating: First, tumor cells MDA-MB-231 were cultured in corresponding medium, then digested with trypsin, centrifuged, resuspended, and counted, and the cells were adjusted to an appropriate concentration for plating.
as §1
as §2, with “Table 18.” for “Table 2.”

[3] = test system: A549 cells; assay: Inhibitory effect of compounds on A549 cell proliferation; conditions: Homo sapiens, A549, 72 h, read-out: IC50, inhibitory activity on A549 cell proliferation
Protocol: (1) Cell plating: First, tumor cells A549 were cultured in the corresponding medium, then digested with trypsin, centrifuged and resuspended, and counted, and the cells were adjusted to an appropriate concentration for plating.
as §1
as §2, with “cell activity” for “cell viability”, “Table 4.” for “Table 2.”

[4] = test system: Hela cells; assay: Inhibitory effect of compounds on Hela cell proliferation; conditions: Homo sapiens, HeLa, 72 h, read-out: IC50, inhibitory activity on Hela cell proliferation
Protocol: (1) Cell plating: First, tumor cells Hela were cultured in corresponding medium, then digested with trypsin, centrifuged, resuspended, and counted, and the cells were adjusted to an appropriate concentration for plating.
as §1
as §2, with “Table 14.” for “Table 2.”

[5] = test system: NCI-N87 cells; assay: Inhibitory effect of compounds on NCI-N87 cell proliferation
Protocol: (1) Cell plating: First, tumor cells NCI-N87 were cultured in corresponding medium, then digested with trypsin, centrifuged, resuspended, and counted, and the cells were adjusted to an appropriate concentration for plating.
as §1
as §2, with “Table 12.” for “Table 2.”

[6] = test system: Jeko-1 cells; assay: Inhibitory effect of compounds on Jeko-1 cell proliferation; conditions: read-out: IC50, inhibitory activity on Jeko-1 cell proliferation
Protocol: (1) Cell plating: First, tumor cells Jeko-1 were cultured in corresponding medium, then digested with trypsin, centrifuged, resuspended, and counted, and the cells were adjusted to an appropriate concentration for plating.
as §1
as §2, with “Table 20.” for “Table 2.”

[7] = test system: NCI-H358 cells; assay: Inhibitory effect of compounds on NCI-H358 cell proliferation; conditions: Homo sapiens, NCI-H358, 72 h, read-out: IC50, inhibitory activity on NCI-H358 cell proliferation, NCI-H358 human non-small cell lung cancer cells, 72 h incubation, Cell Counting-Lite 2.0
Protocol: (1) Cell plating: First, tumor cells NCI-H358 were cultured in corresponding medium, then digested with trypsin, centrifuged, resuspended, and counted, and the cells were adjusted to an appropriate concentration for plating.
as §1
as §2, with “Table 10.” for “Table 2.”

Compound | IC50 ([1]; Homo sapiens, HT-29, 72 h) [nM] | IC50 ([2]; Homo sapiens, MDA-MB-231, 72 h) [nM] | other results
CC[C@@]1(O)C(=O)OCc2c1cc1n(c2=O)Cc2c-1nc1cc(F)c(C)c3c1c2[C@@H](NC(=O)[C@H](O)CN(C)C)CC3 (single isomer, unassigned) [Example 20 (1-10-A)] | 61.6 | 97.6 | 
CC[C@@]1(O)C(=O)OCc2c1cc1n(c2=O)Cc2c-1nc1cc(F)c(C)c3c1c2[C@@H](NC(=O)[C@@H](O)CN(C)C)CC3 (single isomer, unassigned) [Example 20 (1-10-B)] | 10.3 | 27.2 | 
CC[C@@]1(O)C(=O)OCc2c1cc1n(c2=O)Cc2c-1nc1cc(Cl)c(C)c3c1c2[C@H](NC(=O)C1(O)CC1)CC3 [Example 7 (2-20-B), N-((1R,9S)-5-chloro-9-ethyl-9-hydroxy-4-methyl-10,13-dioxo-2,3,9,10,13,15-hexahydro-1H,12H-benzo[de]pyrano[3′,4′:6,7]indolizino[1,2-b]quinolin-1-yl)-1-hydroxycyclopropane-1-carboxamide] | 4.03 |  | IC50 [3]: 23.1 nM
CC#C[C@H](O)C(=O)N[C@H]1CCc2c(C)c(F)cc3nc4c(c1c23)Cn1c-4cc2c(c1=O)COC(=O)[C@]2(O)CC [Example 1 (1-1-B), (S)—N-((1S,9S)-9-ethyl-5-fluoro-9-hydroxy-4-methyl-10,13-dioxo-2,3,9,10,13,15-hexahydro-1H,12H-benzo[de]pyrano[3′,4′:6,7]indolizino[1,2-b]quinolin-1-yl)-2-hydroxypent-3-yneamide] | 1.54 |  | IC50 [4]: 3.65 nM
CC[C@@]1(O)C(=O)OCc2c1cc1n(c2=O)Cc2c-1nc1cc(F)c(Cl)c3c1c2[C@@H](NC(=O)CO)CC3 [Example 9 (3-4-A), N-((1S,9S)-4-Chloro-9-ethyl-5-fluoro-9-hydroxy-10,13-dioxo-2,3,9,10,13,15-hexahydro-1H, 12H-benzo[de]pyrano[3′,4:6,7]indolizino[1,2-b]quinolin-1-yl)-2-hydroxyacetamide] |  |  | IC50 ([1]; HT29 human colon cancer cells, 72 h incubation, Cell Counting-Lite 2.0): 5.55 nM; IC50 ([5]; NCI-N87 human gastric cancer cells, 72 h incubation, Cell Counting-Lite 2.0, read-out: IC50, inhibitory activity on NCI-N87 cell proliferation): 4.38 nM; IC50 ([2]; MDA-MB-231 human breast cancer cells, 72 h incubation, Cell Counting-Lite 2.0): 285 nM; IC50 ([6]; Jeko-1 human mantle cell lymphoma cells, 72 h incubation, Cell Counting-Lite 2.0): 0.27 nM
CC[C@@]1(O)C(=O)OCc2c1cc1n(c2=O)Cc2c-1nc1cc3c(cc1c2CCNCCOC)OCO3 [Example 22 (4-15), (S)-7-Ethyl-7-hydroxy-14-(2-((2-methoxyethyl)amino)ethyl)-7H-[1,3]dioxolano[4,5-g]pyrano[3′,4′:6,7]indolizino[1,2-b]quinolin-8,11 (10H,13H)-dione] | 5.2 | 175 | IC50 [7]: 17.8 nM; IC50 ([6]; Homo sapiens, JeKo-1, 72 h): 0.11 nM
CC[C@@]1(O)C(=O)OCc2c1cc1n(c2=O)Cc2c-1nc1cc(F)c(C)c3c1c2[C@H](CN)CC3 (single isomer, unassigned) [Example 13 (5-7-B)] | 4.66 | 172 | IC50 ([5]; Homo sapiens, NCI-N87, 72 h, read-out: IC50, inhibitory activity on NCI-N87 cell proliferation, NCI-N87 human gastric cancer cells, 72 h incubation, Cell Counting-Lite 2.0): 7.31 nM; IC50 ([6]; Homo sapiens, JeKo-1, 72 h): 0.18 nM
